The text below walks through data of ChEMBL document CHEMBL1208719, “Design and synthesis of 4-[3,5-dioxo-11-oxa-4,9-diazatricyclo[5.3.1.0(2,6)]undec-4-yl]-2-trifluoromethyl-benzonitriles as androgen receptor antagonists” (Bioorg Med Chem Lett, 2010).

In data set [1] the target is T1, Androgen receptor (Homo sapiens, UniProt P10275).
T1 sequence (P10275 whole entry): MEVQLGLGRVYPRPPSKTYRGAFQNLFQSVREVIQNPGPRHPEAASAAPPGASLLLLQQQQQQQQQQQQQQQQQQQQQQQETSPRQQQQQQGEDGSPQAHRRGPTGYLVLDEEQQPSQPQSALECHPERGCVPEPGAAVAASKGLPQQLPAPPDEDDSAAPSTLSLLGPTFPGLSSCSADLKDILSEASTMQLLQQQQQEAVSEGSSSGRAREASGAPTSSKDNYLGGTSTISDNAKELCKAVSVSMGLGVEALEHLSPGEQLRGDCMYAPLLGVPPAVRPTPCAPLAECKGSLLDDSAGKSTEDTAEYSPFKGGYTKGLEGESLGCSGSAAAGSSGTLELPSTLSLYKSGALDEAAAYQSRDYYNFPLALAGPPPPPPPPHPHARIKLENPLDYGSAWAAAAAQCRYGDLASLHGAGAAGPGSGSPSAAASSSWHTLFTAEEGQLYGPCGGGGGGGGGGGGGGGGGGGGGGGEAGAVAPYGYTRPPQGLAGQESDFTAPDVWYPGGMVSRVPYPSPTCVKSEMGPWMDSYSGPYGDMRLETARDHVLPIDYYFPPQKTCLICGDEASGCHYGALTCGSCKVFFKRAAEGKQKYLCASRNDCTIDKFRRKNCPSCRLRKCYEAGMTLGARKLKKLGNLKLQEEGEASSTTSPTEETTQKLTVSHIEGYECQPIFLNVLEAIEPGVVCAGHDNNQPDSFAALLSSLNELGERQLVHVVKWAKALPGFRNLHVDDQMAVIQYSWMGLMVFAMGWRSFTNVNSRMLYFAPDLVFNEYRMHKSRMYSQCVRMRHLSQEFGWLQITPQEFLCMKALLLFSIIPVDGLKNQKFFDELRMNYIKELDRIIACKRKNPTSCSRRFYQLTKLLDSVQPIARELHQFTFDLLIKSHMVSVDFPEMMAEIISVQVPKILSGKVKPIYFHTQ
The data set is described as follows: Displacement of [3H]DHT from AR in human MDA-MB-453 cells.

Data set [2] in a line: Metabolic stability in human liver microsomes assessed as compound remaining at 3 uM after 10 mins. The data set is classed as ADME, Microsome. As to conditions: read-out: Activity.
For data set [3], the system named is Rattus norvegicus. Put plainly: Effect on immature rat prostate weight in rat assessed as ratio of weight of seminal vesicles to full body weight at 1 mg/kg, po qd for 3 days relative to control. The data set is classed as functional, Prostate gland.
The subject of the next data set is MDA-MB-435. Put plainly: Cytotoxicity against human MDA-MB-435 cells assessed as inhibition of DHT-induced cell growth at 5 uM. The data set is classed as functional.
Data set [4] has as its system Rattus norvegicus. Put plainly: Effect on immature rat prostate weight in rat assessed as ratio of weight of seminal vesicles to full body weight at 30 mg/kg, po qd for 3 days relative to control. The class given is functional, Prostate gland.
Data set [5] is described as follows: Metabolic stability in rat liver microsomes assessed as compound remaining at 3 uM after 10 mins. The class given is ADME, Microsome. As to conditions: read-out: Activity.
The subject of a further data set is LNCaP. The data set is described as follows: Cytotoxicity against human LNCAP cells assessed as inhibition of DHT-induced cell growth at 5 uM. The class given is functional.
In data set [6] the target is T1, Androgen receptor.
Description: Antagonist activity at wild type human AR expressed in human LNCAP cells by transactivation assay
Data set [7] in a line: Metabolic stability in mouse liver microsomes assessed as compound remaining at 3 uM after 10 mins. The data set is classed as ADME, Microsome. As to conditions: read-out: Activity.
Data set [8] addresses T1, Androgen receptor. The source holds these as a separate data set.
Description: Antagonist activity at human wild type AR expressed in human MDA-MB-435 cells by transactivation assay

In turn, `C[C@]12CN(c3cccc(S(C)(=O)=O)c3)C[C@](C)(O1)[C@@H]1C(=O)N(c3ccc(C#N)c(C(F)(F)F)c3)C(=O)[C@@H]12` returned a Ki at Androgen receptor [1] of 9.4 nM. Moreover, the remaining at 10 min, 3 µM was 76% in data set [2], 100% in [5] and 92% in data set [7]. The Activity with Rattus norvegicus [3] is 37%; in the data set on Rattus norvegicus [4], 28%. The inhibition at 5 µM is 96% with MDA-MB-435 and 98% with LNCaP. Besides, the values for the IC50 at Androgen receptor [6] and against Androgen receptor [8] were 150 nM and 7.4 nM, respectively.
`CCOC(=O)N1C[C@@]2(C)O[C@@](C)(C1)[C@@H]1C(=O)N(c3ccc(C#N)c(C(F)(F)F)c3)C(=O)[C@@H]12` registered a Ki at Androgen receptor [1] of 5.7 nM. The inhibition at 5 µM in the data set on MDA-MB-435 was 99%; in the data set on LNCaP, 93%. Also, the half-maximal inhibitory concentration (IC50) was determined as 590 nM on Androgen receptor [6] and 65 nM at Androgen receptor [8].
Taken in the same sequence, the figures for `CCS(=O)(=O)N1C[C@@]2(C)O[C@@](C)(C1)[C@@H]1C(=O)N(c3ccc(C#N)c(C(F)(F)F)c3)C(=O)[C@@H]12` were 16 nM, 99%, 90%, 600 nM and 85 nM.
